Assay results published in ChEMBL document CHEMBL3813622, “Anion inhibition profiles of α-, β- and γ-carbonic anhydrases from the pathogenic bacterium Vibrio cholerae” (Bioorg Med Chem, 2016).
pKi: −log10 of the molar value. Values joined by “and” are separate entries in the source; they are usually repeats but may differ in a detail not shown here. Equal values may be shown once.

Assays:
[1] = Inhibition of Vibrio cholerae alpha carbonic anhydrase preincubated for 15 mins by stopped-flow CO2 hydrase assay
[2] = Inhibition of Vibrio cholerae carbonic anhydrase beta preincubated for 15 mins by stopped-flow CO2 hydrase assay
[3] = Inhibition of Helicobacter pylori alpha carbonic anhydrase preincubated for 15 mins by stopped-flow CO2 hydrase assay
Carbonic anhydrase 1 = Carbonic anhydrase 1 (Homo sapiens, UniProt P00915); assay: Inhibition of human carbonic anhydrase 1 preincubated for 15 mins by stopped-flow CO2 hydrase assay
Carbonic anhydrase 1, sequence (P00915 whole entry): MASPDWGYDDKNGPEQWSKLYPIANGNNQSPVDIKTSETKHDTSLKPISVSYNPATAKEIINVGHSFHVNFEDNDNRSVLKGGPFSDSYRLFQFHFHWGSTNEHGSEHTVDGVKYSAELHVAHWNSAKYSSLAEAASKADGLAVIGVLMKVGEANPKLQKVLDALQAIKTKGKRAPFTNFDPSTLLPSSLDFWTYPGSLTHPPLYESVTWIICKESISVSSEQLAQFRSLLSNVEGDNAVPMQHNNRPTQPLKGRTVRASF

Row | Structure (SMILES) | pKi [1] | pKi [2] | pKi [3] | pKi (Carbonic anhydrase 1)
1 | O=S(O)O [SULFUROUS ACID] | 4.17 | < 0.70 | 3.00 | –
2 | N#C[SeH] | 3.12 | 2.28 | 3.14 | 5.07
3 | NS(N)(=O)=O [SULFAMIDE] | 5.10 | 4.27 | 4.14 | –
4 | N#CO [CYANATE] | 4.12 | 2.15 | 3.22 | –
5 | O=S(=O)(O)NS(=O)(=O)O | 1.05 | < 0.70 | 3.27 | –
6 | O=NO [NITROUS ACID] | 1.47 | 2.04 | 3.03 | –
7 | NS(=O)(=O)O [SULFAMATE] | 4.51 | 4.07 | 4.10 | –
8 | O=P(O)(O)OP(=O)(O)O [PYROPHOSPHORIC ACID] | 2.53 | – | 3.18 | –
9 | S=C(S)S [CARBONOTRITHIOIC ACID] | 4.06 | 2.15 | 3.42 | –
10 | O=S(=O)(O)O [SULFURIC ACID] | 3.07 | – | 3.09 | –
11 | O=[Te](=O)(O)O | 1.84 | 2.64 | 3.47 | –
12 | O=[N+]([O-])O | 3.17 | 2.08 | 3.09 | –
13 | F[B-](F)(F)F | < 0.70 | < 0.70 | < 0.70 | –
14 | CCN(CC)C(=S)S [DITIOCARB] | 4.37 | 3.14 | 5.30 | –
15 | O=S(=O)(O)F | – | 2.05 | – | –
16 | Cl [HYDROCHLORIC ACID] | 3.03 | 2.09 | 2.57 | –
17 | O=[As](O)(O)c1ccccc1 [PHENYLARSONIC ACID] | 4.64 | 4.10 | 3.36 | –
18 | [N-]=[N+]=[N-] | 3.12 | 1.69 | 3.08 | –
19 | O=S(=O)(O)OOS(=O)(=O)O | 1.08 | 2.47 | 3.04 | –
20 | O=[Se](=O)(O)O [SELENIC ACID] | 1.22 | 2.47 | 3.14 | –
21 | O=C(O)O [BICARBONATE] | 2.33 and 2.29 | 2.23 and 2.17 | – | –
22 | I [IODIDE] | 2.01 | 2.05 | 2.22 | –
23 | OB(O)c1ccccc1 [PHENYLBORONIC ACID] | 5.15 | 4.07 | 4.01 | –
24 | F [FLUORIDE ION] | 3.10 | 2.06 | 2.39 | –
25 | Br [BROMIDE] | 1.55 | 2.13 | 2.62 | –
26 | N#CS [THIOCYANIC ACID] | 3.09 | 2.02 | 2.39 | –
27 | S [HYDROGEN SULFIDE] | 4.13 | 1.67 | – | –
28 | [O-][Cl+3]([O-])([O-])O [PERCHLORATE] | < 0.70 | < 0.70 | 2.00 | –
